Type in all cases: cell-based
Assay [1] deals with Aspergillus flavus, isolate 1 (AFL 001). The assay can be described thus: Antifungal activity score, decreasing concentrations. The conditions noted are these: Example 2, scale 0-4. On the procedure: (§1) The tachyplesin was used at a concentration of 100 μg/ml as determined by absorption spectrum was screened against four common plant pathogens in both crude and oxidized forms. Antifungal activity was scored on a scale of 0 to 4, with 0 being no inhibition observed relative to a water control, and 4 being complete inhibition. Two reps were done for each treatment. Results were as follows:
(§2) Decreasing tested concentrations of tachyplesin were against the preceding four organisms plus Fusarium moniliforme and Sclerotinia sclerotiorum to determine the minimum inhibitory concentration, and this was compared with other antimicrobial compounds.

In assay [2] the test system is SSC ascospores (Sclerotinia sclerotiorum). The description is as above. The conditions noted are these: Example 2, scale 0-4. On the procedure:
as §1, §2

In assay [3] the test system is FMO 001 (Fusarium moniliforme). The assay is described as above. To be noted: Example 2, scale 0-4. On the procedure:
as §1, §2

In assay [4] the test system is SSC 002 (Sclerotinia sclerotiorum). The assay is described as above. To be noted: Example 2, scale 0-4. Here is the method: as §1, §2
For assay [5], the system named is Fusarium graminearum, isolate 8 (FGR 008). The conditions noted are these: Example 2, scale 0-4.
Assay [6] concerns Fusarium graminearum, isolate 5 (FGR 005). To be noted: for Score (antifungal activity), Fusarium graminearum, isolate 5: Example 1, 100 μg/ml; for Score FGR 005: Example 2, scale 0-4.
Assay [7] deals with Sclerotinia trifoliorum, isolate 1. Put plainly: Antifungal activity score. To be noted: Example 1, 100 μg/ml. On the procedure: The tachyplesin was used at a concentration of 100 μg/ml as determined by absorption spectrum was screened against four common plant pathogens in both crude and oxidized forms. Antifungal activity was scored on a scale of 0 to 4, with 0 being no inhibition observed relative to a water control, and 4 being complete inhibition. Two reps were done for each treatment.

In assay [8] the test system is FMO 001 (Fusarium moniliforme). Put plainly: Minimum inhibitory concentration. The conditions noted are these: MIC Comparisons.
Text: as §2

Assay [9] relates to SSC 002 (Sclerotinia sclerotiorum). Put plainly: Minimum inhibitory concentration. The conditions noted are these: MIC Comparisons.
Text: as §2

For assay [10], the system named is FGR 005 (Fusarium graminearum). To be noted: MIC Comparisons.
Assay [11] deals with FGR 008 (Fusarium graminearum).
Assay [12] relates to AFL 001 (Aspergillus flavus). Put plainly: Minimum inhibitory concentration. The conditions noted are these: for MIC AFL 001: MIC Comparisons; for Dependence of MIC on buffer pH, AFL 001: buffer pHs of from 5.0 to 8.0. Here is the method: Decreasing tested concentrations of tachyplesin were against the preceding four organisms plus Fusarium moniliforme and Sclerotinia sclerotiorum to determine the minimum inhibitory concentration, and this was compared with other antimicrobial compounds. Results were as follows:
The MICs of tachyplesin, defensin and hordothionin (μg/ml) were measured against FGR 008 and AFL 001 across a range of buffer pHs and ionic strengths to determine their suitability as plant antimicrobials under varying conditions.

This is an account of results in patent US5488035A (priority 1991, dated 1996).

Where two headings read alike, the source gives them in different places. Bridge positions count the residues as written; N and C are the ends. Peptide text beside a SMILES is read from it.

Take tachyplesin [tachyplesin oxidized]: the “Score AFL 001” value came out at 0.0 in [1] (1.56 μg/ml (0.7 μM)); 0.0 in assay [1] (3.13 μg/ml (1.4 μM)); 1.0 in [1] (6.25 μg/ml (2.8 μM)); 1.5 in [1] (12.5 μg/ml (5.6 μM)); 2.75 in [1] (25 μg/ml (11.1 μM)); 3.75 in assay [1] (50 μg/ml (22.2 μM)). In assay [1] (100 μg/ml (44.4 μM)), the “Score AFL 001” value stood at 3.75. The “Score SSC ascospores” value stood at 0.0 in [2] (1.56 μg/ml (0.7 μM)); 0.0 in assay [2] (3.13 μg/ml (1.4 μM)); 3.0 in [2] (6.25 μg/ml (2.8 μM)); 4.0 in assay [2] (12.5 μg/ml (5.6 μM)); 4.0 in [2] (25 μg/ml (11.1 μM)); 4.0 in assay [2] (50 μg/ml (22.2 μM)). The “Score SSC ascospores” value in assay [2] (100 μg/ml (44.4 μM)) is reported as 4.0. For the same molecule, the “Score FMO 001” value was 0.0 in assay [3] (1.56 μg/ml (0.7 μM)); 0.5 in assay [3] (3.13 μg/ml (1.4 μM)); 1.0 in assay [3] (6.25 μg/ml (2.8 μM)); 2.5 in [3] (12.5 μg/ml (5.6 μM)); 4.0 in assay [3] (25 μg/ml (11.1 μM)); 4.0 in assay [3] (50 μg/ml (22.2 μM)). Also, the “Score FMO 001” value in assay [3] (100 μg/ml (44.4 μM)) came to 4.0. Further, the “Score SSC 002” value in assay [4] (1.56 μg/ml (0.7 μM)) was found to be 0.0; in assay [4] (3.13 μg/ml (1.4 μM)), 0.0; in assay [4] (6.25 μg/ml (2.8 μM)), 0.0; in [4] (12.5 μg/ml (5.6 μM)), 4.0; in assay [4] (25 μg/ml (11.1 μM)), 4.0; in assay [4] (50 μg/ml (22.2 μM)), 4.0. Further, the “Score SSC 002” value in assay [4] (100 μg/ml (44.4 μM)) is 4.0. Further, the “Score FGR 008” value stood at 0.0 in assay [5] (1.56 μg/ml (0.7 μM)); 0.0 in assay [5] (3.13 μg/ml (1.4 μM)); 2.0 in assay [5] (6.25 μg/ml (2.8 μM)); 4.0 in assay [5] (12.5 μg/ml (5.6 μM)); 4.0 in assay [5] (25 μg/ml (11.1 μM)); 4.0 in [5] (50 μg/ml (22.2 μM)). In addition, in assay [5] (100 μg/ml (44.4 μM)), the “Score FGR 008” value was found to be 4.0. Further, the “Score (antifungal activity), Fusarium graminearum, isolate 5” value in [6] amounted to 4.0. The “Score FGR 005” value was 0.0 in assay [6] (1.56 μg/ml (0.7 μM)); 0.0 in assay [6] (3.13 μg/ml (1.4 μM)); 2.25 in assay [6] (6.25 μg/ml (2.8 μM)); 3.5 in assay [6] (12.5 μg/ml (5.6 μM)); 4.0 in assay [6] (25 μg/ml (11.1 μM)); 4.0 in [6] (50 μg/ml (22.2 μM)). The “Score FGR 005” value in assay [6] (100 μg/ml (44.4 μM)) turned out to be 4.0. Moreover, the “Score (antifungal activity), Sclerotinia trifoliorum, isolate 1” value in [7] is on record as 4.0.

Consider hordothionin, for which the “MIC FMO 001” value in [8] (value before parentheses) was 45 µg/mL; in assay [8] (value in parentheses), 9 µM. Further, the “MIC SSC 002” value in assay [9] (value before parentheses) came to 30 µg/mL; in assay [9] (value in parentheses) it was 6 µM. For the same molecule, the “MIC FGR 005” value amounted to 5 µg/mL in assay [10] (value before parentheses) and 1 µM in [10] (value in parentheses). For the same molecule, the “Dependence of MIC on buffer pH, FGR 008” value in [11] (buffer pHs of from 5.0 to 8.0) is “None of the antimicrobials showed a discernible trend or optimum”. In addition, the “MIC AFL 001” value in [12] (value before parentheses) came to 15 µg/mL; in assay [12] (value in parentheses), 3 µM. In assay [12], the “Dependence of MIC on buffer pH, AFL 001” value is recorded as “None of the antimicrobials showed a discernible trend or optimum”.

For tachyplesin [tachyplesin crude], the “Score AFL 001” value was determined as 0.0 in [1] (1.56 μg/ml (0.7 μM)); 0.0 in assay [1] (3.13 μg/ml (1.4 μM)); 0.0 in [1] (6.25 μg/ml (2.8 μM)); 1.0 in [1] (12.5 μg/ml (5.6 μM)); 1.5 in [1] (25 μg/ml (11.1 μM)); 3.25 in assay [1] (50 μg/ml (22.2 μM)). In assay [1] (100 μg/ml (44.4 μM)), the “Score AFL 001” value came out at 3.5. Besides, the “Score SSC ascospores” value in assay [2] (1.56 μg/ml (0.7 μM)) came to 0.0; in [2] (3.13 μg/ml (1.4 μM)) it was 0.0; in assay [2] (6.25 μg/ml (2.8 μM)), 0.0; in [2] (12.5 μg/ml (5.6 μM)), 4.0; in [2] (25 μg/ml (11.1 μM)), 4.0; in [2] (50 μg/ml (22.2 μM)), 4.0. In assay [2] (100 μg/ml (44.4 μM)), the “Score SSC ascospores” value is 4.0. Besides, the “Score FMO 001” value in [3] (1.56 μg/ml (0.7 μM)) worked out at 0.0; in [3] (3.13 μg/ml (1.4 μM)), 0.0; in [3] (6.25 μg/ml (2.8 μM)), 0.5; in [3] (12.5 μg/ml (5.6 μM)), 1.25; in [3] (25 μg/ml (11.1 μM)), 3.75; in assay [3] (50 μg/ml (22.2 μM)), 4.0. Further, in assay [3] (100 μg/ml (44.4 μM)), the “Score FMO 001” value was found to be 4.0. The “Score SSC 002” value in [4] (1.56 μg/ml (0.7 μM)) was found to be 0.0; in assay [4] (3.13 μg/ml (1.4 μM)), 0.0; in [4] (6.25 μg/ml (2.8 μM)) it was 0.0; in assay [4] (12.5 μg/ml (5.6 μM)), 1.0; in [4] (25 μg/ml (11.1 μM)), 4.0; in assay [4] (50 μg/ml (22.2 μM)) it was 4.0. In assay [4] (100 μg/ml (44.4 μM)), the “Score SSC 002” value was 4.0. Further, the “Score FGR 008” value in assay [5] (1.56 μg/ml (0.7 μM)) is recorded as 0.0; in [5] (3.13 μg/ml (1.4 μM)), 0.0; in [5] (6.25 μg/ml (2.8 μM)) it was 0.0; in assay [5] (12.5 μg/ml (5.6 μM)), 3.75; in assay [5] (25 μg/ml (11.1 μM)), 4.0; in assay [5] (50 μg/ml (22.2 μM)) it was 4.0. Further, the “Score FGR 008” value in assay [5] (100 μg/ml (44.4 μM)) was determined as 4.0. In addition, the “Score (antifungal activity), Fusarium graminearum, isolate 5” value in assay [6] is reported as 4.0. Besides, the “Score FGR 005” value in [6] (1.56 μg/ml (0.7 μM)) came to 0.0; in assay [6] (3.13 μg/ml (1.4 μM)), 0.0; in [6] (6.25 μg/ml (2.8 μM)), 1.0; in assay [6] (12.5 μg/ml (5.6 μM)), 3.0; in assay [6] (25 μg/ml (11.1 μM)) it was 4.0; in [6] (50 μg/ml (22.2 μM)), 4.0. The “Score FGR 005” value in assay [6] (100 μg/ml (44.4 μM)) is listed as 4.0. For the same molecule, the “Score (antifungal activity), Sclerotinia trifoliorum, isolate 1” value in assay [7] is recorded as 4.0.

For the molecule `CC[C@H](C)[C@@H]1NC(=O)CNC(=O)[C@H](CCCNC(=N)N)NC(=O)[C@H](Cc2ccc(O)cc2)NC(=O)[C@@H]2CSSC[C@H](NC1=O)C(=O)N[C@@H](Cc1ccc(O)cc1)C(=O)N[C@@H](CCCNC(=N)N)C(=O)N[C@@H](CCCNC(=N)N)C(=O)N[C@H](C(=O)N[C@@H](CCCNC(=N)N)C(=O)O)CSSC[C@H](NC(=O)[C@H](Cc1c[nH]c3ccccc13)NC(=O)[C@@H](N)CCCCN)C(=O)N[C@@H](Cc1ccccc1)C(=O)N[C@@H](CCCNC(=N)N)C(=O)N[C@@H](C(C)C)C(=O)N2` [tachyplesin] (H-KWCFRVCYRGICYRRCR-OH; disulfide 3-16, 7-12; N-terminus assumed), the “MIC FMO 001” value was 6.25 µg/mL in [8] (value before parentheses) and 2.8 µM in assay [8] (value in parentheses). The “MIC SSC 002” value worked out at 12.5 µg/mL in [9] (value before parentheses) and 5.6 µM in [9] (value in parentheses). Besides, in assay [11], the “Dependence of MIC on buffer pH, FGR 008” value is “None of the antimicrobials showed a discernible trend or optimum”. The “MIC AFL 001” value was found to be 6.25 µg/mL in assay [12] (value before parentheses) and 2.8 µM in assay [12] (value in parentheses). Besides, the “Dependence of MIC on buffer pH, AFL 001” value in assay [12] is reported as “None of the antimicrobials showed a discernible trend or optimum”.

In the case of CMIII, the “MIC FMO 001” value was determined as 18.2 µg/mL in [8] (value before parentheses) and 4.6 µM in assay [8] (value in parentheses). Further, the “MIC SSC 002” value amounted to 24 µg/mL in [9] (value before parentheses) and 6 µM in assay [9] (value in parentheses). In addition, the results for the “MIC AFL 001” value in assay [12] (value before parentheses) and in assay [12] (value in parentheses) were 60 µg/mL and 15 µM, respectively.
